# Assay results: patent publication US11629127B2, “Drug-induced activation of the Reelin signaling system” (UNIVERSITY OF SOUTH FLORIDA, priority 2017, dated 2023)
# Molecular target: T1, ApoER2 (Homo sapiens, UniProt Q14114)
# T1 construct: expressed in transfected cells; host or cells: HEK293 (named only through the non-transfected controls)
# T1 sequence (Q14114 33-963) 1: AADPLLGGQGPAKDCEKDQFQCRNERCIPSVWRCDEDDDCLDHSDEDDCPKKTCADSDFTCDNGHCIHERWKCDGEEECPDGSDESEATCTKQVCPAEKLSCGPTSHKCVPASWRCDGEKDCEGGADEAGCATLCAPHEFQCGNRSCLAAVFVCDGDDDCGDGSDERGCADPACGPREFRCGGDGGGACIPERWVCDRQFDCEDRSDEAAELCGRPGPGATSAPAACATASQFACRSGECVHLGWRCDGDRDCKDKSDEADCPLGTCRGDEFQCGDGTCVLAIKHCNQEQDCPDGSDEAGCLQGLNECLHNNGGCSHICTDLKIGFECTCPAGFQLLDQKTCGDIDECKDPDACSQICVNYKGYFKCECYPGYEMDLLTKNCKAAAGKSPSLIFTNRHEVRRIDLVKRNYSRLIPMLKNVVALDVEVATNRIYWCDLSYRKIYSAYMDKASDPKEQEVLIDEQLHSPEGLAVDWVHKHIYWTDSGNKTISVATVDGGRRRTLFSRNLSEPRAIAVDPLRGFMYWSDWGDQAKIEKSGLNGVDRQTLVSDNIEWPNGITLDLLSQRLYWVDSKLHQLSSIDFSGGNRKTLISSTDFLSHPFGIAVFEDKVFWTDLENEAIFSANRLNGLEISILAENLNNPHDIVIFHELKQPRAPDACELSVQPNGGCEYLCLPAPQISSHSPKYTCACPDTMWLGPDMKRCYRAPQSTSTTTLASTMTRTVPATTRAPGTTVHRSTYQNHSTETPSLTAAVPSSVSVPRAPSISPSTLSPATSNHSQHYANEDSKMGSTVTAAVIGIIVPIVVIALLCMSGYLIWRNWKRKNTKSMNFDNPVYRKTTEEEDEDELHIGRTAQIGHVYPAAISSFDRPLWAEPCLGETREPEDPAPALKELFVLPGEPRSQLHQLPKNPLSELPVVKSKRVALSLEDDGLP
# T1 sequence (Q14114 33-963) 2: T1 sequence (Q14114 33-963) 1
# Assay: ApoER2 luciferase assay (ApoER2 dimerization/clustering)
# Assay type: cell-based
# Details: for changes in firefly/renilla ratios in the ApoER2 luciferase assay: 10 μM concentration, 60 minutes
# Excerpt: FIG. 3 is a schematic of the ApoER2 Clustering Assay. The ApoER2 clustering assay uses the co-transfection of ApoER2 fusion proteins that express either the C- or N-terminal of the luciferase enzyme (A″) Upon Reelin fragment binding, receptor clustering results in active Luciferase and detectable fluorescence (B″). Controls included non-transfected Hek293 cells. Results are average +/−SEM; n=9-15 assays per fragment
# Reelin is able to signal through ApoER2 and VLDLR by clustering the receptors. Receptor clustering results in Dab1 activation and is responsible for the modulation of LTP in wild-type acute hippocampal slices. The ApoER2 luciferase assay was used to measure ApoER2 dimerization. This system used an ApoER2-luciferase fusion protein in which ApoER2 was coupled with either the N- or C-terminus portion of luciferase. Upon receptor clustering, the N- and C-terminus portions of luciferase combined to produce a quantifiable fluorescent signal. As a control, all cells were transfected with a Renilla florescent protein that quantified the number of cells in the testing well. The ratio of luciferase florescence to Renilla florescence was used to determine the effect of small molecules. The ApoER2 luciferase assay (FIG. 3) was used to identify small molecules that mimic the actions of Reelin to activate the Reelin signaling system.
# The CNS-Set Library was purchased from ChemBridge® and consisted of 35,000 small molecule compounds. The effects of each compound on Reelin signaling were tested in the absence or presence of purified Reeling with the ApoER2 luciferase assay in a 96-well plate. The assay was used to identify agonists of ApoER2 clustering and luciferase activity and was not particularly sensitive for identifying antagonists of receptor clustering.
# Relact02 was tested for inducing dimerization of ApoER2 using luciferase as a reporter. Shown in FIG. 1A is a dose response curve assessing luciferase activity. Activity was determined by dimerization of two ApoER2 receptors fused with a luciferase enzyme reporter at the N- or C-terminal region. The control was a compound with structure similar to but different from Relact02. Shown in FIG. 1B is a time course for the luciferase assay using 5 μM of Relact02 or control molecule. Shown in FIG. 1C is a time course using 5 μM Relact02 alone (black bars) or in the presence of the Reelin protein (gray bars).
SMILES,"activation / luciferase activity in the ApoER2 luciferase assay (compound screening, 96-well plate)",changes in firefly/renilla ratios in the ApoER2 luciferase assay
"CCOC(=O)c1cc(C(=O)NCc2ccccc2)c(=O)[nH]c1C [Compound E02, ethyl 5-((benzylamino)carbonyl)-2-methyl-6-oxo-1,6-dihydro-3-pyridinecarboxylate, reference compound]",no luciferase activity,–
CC(C)c1ccc(/C=C/C(=O)Nc2ccc(Cl)cc2Cl)cc1 [(2)],–,did not show changes
CC(C)c1ccc(/C=C/C(=O)Nc2ccc(Cl)cc2)cc1 [(4)],–,did not show changes
CC(C)c1ccc(/C=C/C(=O)Nc2cccc(Cl)c2Cl)cc1 [(3)],–,did not show changes
CC(C)c1ccc(/C=C/C(=O)Nc2ccc(I)cc2Cl)cc1 [(5)],–,did not show changes
